Key:
[1] = molecular target: FPTase (K-Ras substrate) (UniProt P29702+P49355); experiment: in vitro FTase Inhibition Assay, K-Ras as substrate for farnesylation; assay type: biochemical; details: K-Ras used as substrate for farnesylation
Description: (§1) The ability of the compounds of this invention to inhibit FPTase was evaluated in the standard pharmacological in vitro test procedures described below.
(§2) Methods—1. […] 2. Solution #1 is added to FPTase reaction in a volume of […]. 3. Standard reaction mix, […], contains 50 mM Tris (7.5), […], 3 mM MgCl2, 20 mM KCl, 5 mM DTT, 0.2% octyl-B-glucoside, 1% DMSO, […], 10 ng FPTase, and various concentrations of FPTase inhibitors. 4. Incubate for 30-90 min at […] 5. Stop reactions with TCA/SDS (6%/2%), hold at 4° C. for 45-60 min. 6. Filter by manifold or 96 well plate, wash filter 3-5× with TCA (6%). 7. Add scintillant to filters, measure ^3H-FPP incorporation into Ras protein.
(§3) (cpm from precipitated Ras with test compounds)−(background cpm)×100=% inhibition.
(§4) (cpm from precipitated Ras without test compounds)−(background cpm)

[2] = molecular target: FPTase (H-Ras substrate) (UniProt P29702+P49355); experiment: in vitro FTase Inhibition Assay, H-Ras as substrate for farnesylation; assay type: biochemical; details: H-Ras used as substrate for farnesylation
Description: as §1, §2, §3, §4

IC50 [1] [µM]	IC50 [2] [µM]	SMILES
1.9	0.07	COc1ccc(S(=O)(=O)C2(CCCC#Cc3cccc([N+](=O)[O-])c3)SC(=O)NC2=O)cc1 (centres unmarked) [Example 118, 5-(4-Methoxybenzenesulfonyl)-5-[5-(3-nitrophenyl)pent-4-ynyl]-thiazolidine-2,4-dione]
0.21 to 1	0.041 to 0.073	COc1ccc(S(=O)(=O)C2(CCCC#Cc3ccc([N+](=O)[O-])cc3OC)SC(=O)NC2=O)cc1 (centres unmarked) [Example 132, 5-(4-Methoxybenzenesulfonyl)-5-[5-(2-methoxy-4-nitrophenyl)pent-4-ynyl]-thiazolidine-2,4-dione]
0.4	0.03	Cc1ccc([N+](=O)[O-])cc1C#CCCCC1(S(=O)(=O)c2ccc(I)cc2)SC(=O)NC1=O (centres unmarked) [Example 125, 5-(4-Iodobenzenesulfonyl)-5-[5-(2-methyl-5-nitrophenyl)pent-4-ynyl]-thiazolidine-2,4-dione]
0.017 to 0.04	0.005 to 0.01	O=C1NC(=O)C(CCCC#Cc2cc(Cl)ccc2Cl)(S(=O)(=O)c2ccc(Oc3ccncc3)cc2)S1 (centres unmarked) [Example 116, 5-[5-(2,5-Dichlorophenyl)pent-4-ynyl]-5-[4-(pyridin-4-yloxy)benz-enesulfonyl]-thiazolidine-2,4-dione]
> 1	0.063	COc1ccc(S(=O)(=O)C2(CCCC#Cc3cc(NC(=O)OC(C)(C)C)ccc3C)SC(=O)NC2=O)cc1 (single isomer, unassigned; more polar) [Example 223, Enantiomer of(3-{5-[5-(4-Methoxybenzenesulfonyl)-2,4-dioxothiazolidin-5-yl]pent-1-ynyl}-4-methylphenyl)carbamic Acid tert-Butyl Ester (more polar)]
0.3 to 0.42	0.023 to 0.032	COc1ccc(S(=O)(=O)C2(CCCC#Cc3cc(Cl)ccc3C)SC(=O)NC2=O)cc1 (centres unmarked) [Example 138, 5-[5-(5-Chloro-2-methylphenyl)pent-4-ynyl]-5-(4-methoxybenzene-sulfonyl)thiazolidine-2,4-dione]
1.5 to 1.7	0.05 to 0.15	O=C1NC(=O)C(CCCC#Cc2ccc(Cl)cc2)(S(=O)(=O)c2ccc(F)cc2)S1 (centres unmarked) [Example 105, 5-[5-(4-Chlorophenyl)pent-4-ynyl]-5-(4-fluorobenzenesulfonyl)-thiazolidine-2,4-dione]
0.62 to 0.7	0.18 to 0.2	O=C1NC(=O)C(CCCC#Cc2ccc(Cl)cc2)(S(=O)(=O)c2ccc3ccccc3c2)S1 (centres unmarked) [Example 107, 5-[5-(4-Chlorophenyl)pent-4-ynyl]-5-(naphthalene-2-sulfonyl)-thiazolidine-2,4-dione]
1.4	0.03 to 0.032	COc1ccc(S(=O)(=O)C2(CCCC#Cc3cccc(Cl)c3)SC(=O)NC2=O)cc1 (centres unmarked) [Example 102, 5-[5-(3-Chlorophenyl)pent-4-ynyl]-5-(4-methoxybenzenesulfonyl)-thiazolidine-2,4-dione]
1 to 6.1	0.17 to 0.2	COc1ccc(S(=O)(=O)C2(CCCC#Cc3ccc(C(F)(F)F)cc3)SC(=O)NC2=O)cc1 (centres unmarked) [Example 153, 5-(4-Methoxybenzenesulfonyl)-5-[5-(4-trifluoromethylphenyl)pent-4-ynyl]-thiazolidine-2,4-dione]
1.3 to 1.5	0.12 to 0.14	Cc1ccc([N+](=O)[O-])cc1C#CCCCC1(S(=O)(=O)c2ccc3ccccc3c2)SC(=O)NC1=O (centres unmarked) [Example 127, 5-[5-(2-Methyl-5-nitrophenyl)pent-4-ynyl]-5-(naphthalene-2-sulfonyl)-thiazolidine-2,4-dione]
0.023 to 0.031	0.0045 to 0.12	Cc1ccc(NC(=O)OC(C)(C)C)cc1C#CCCCC1(S(=O)(=O)c2ccc(I)cc2)SC(=O)NC1=O (centres unmarked) [Example 148, (3-{5-[5-(4-Iodobenzenesulfonyl)-2,4-dioxothiazolidin-5-yl]-pent-1-ynyl}-4-methylphenyl)carbamic Acid tert-Butyl Ester]
0.91 to 1.3	0.052 to 0.08	Cc1ccc([N+](=O)[O-])cc1C#CCCCC1(S(=O)(=O)c2ccc(Oc3ccccc3)cc2)SC(=O)NC1=O (centres unmarked) [Example 124]
0.04 to 1	0.017 to 0.03	COc1ccc(S(=O)(=O)C2(CCCC#Cc3ccc(Cl)cc3C)SC(=O)NC2=O)cc1 (centres unmarked) [Example 142, 5-[5-(4-Chloro-2-methylphenyl)pent-4-ynyl]-5-(4-methoxybenzene-sulfonyl)-thiazolidine-2,4-dione]
≥ 9	0.13 to 0.18	CC(=O)Nc1ccc(S(=O)(=O)C2(CCCC#Cc3ccc(Cl)cc3)SC(=O)NC2=O)cc1 (centres unmarked) [Example 108, N-(4-{5-[5-(4-Chlorophenyl)pent-4-ynyl]-2,4-dioxothiazolidine-5-sulfonyl}phenyl)acetamide]
0.08 to 0.1	0.0068 to 0.21	Cc1ccc(C(=O)NC(C)(C)C)cc1C#CCCCC1(S(=O)(=O)c2ccc(I)cc2)SC(=O)NC1=O (centres unmarked) [Example 147, N-tert-Butyl-3-{5-[5-(4-iodo-benzenesulfonyl)-2,4-dioxothiazol-idin-5-yl]-pent-1-ynyl}-4-methylbenzamide]

IC50 [1] [µM]	IC50 [2] [µM]	SMILES
0.6 to 5	0.14 to 0.17	Cc1ccc(Cl)cc1C#CCCCC1(S(=O)(=O)c2ccc(OC(F)(F)F)cc2)SC(=O)NC1=O (centres unmarked) [Example 139, 5-[5-(5-Chloro-2-methylphenyl)pent-4-ynyl]-5-(4-trifluoromethoxybenzene-sulfonyl)thiazolidine-2,4-dione]
0.53 to 1	0.018 to 0.032	O=C1NC(=O)C(CCCC#Cc2ccc([N+](=O)[O-])cc2)(S(=O)(=O)c2ccc(I)cc2)S1 (centres unmarked) [Example 120, 5-(4-Iodobenzenesulfonyl)-5-[5-(4-nitrophenyl)pent-4-ynyl]-thiazolidine-2,4-dione]
0.1 to 0.23	0.011 to 0.016	COc1ccc(S(=O)(=O)C2(CCCC#Cc3cc(C(=O)NC(C)(C)C)ccc3C)SC(=O)NC2=O)cc1 (centres unmarked) [Example 152, N-tert-Butyl-3-{5-[5-(4-methoxy-benzenesulfonyl)-2,4-dioxothiazol-idin-5-yl]pent-1-ynyl}-4-methyl-benzamide]
0.9 to 10	0.03 to 0.05	Cc1ccc(S(=O)(=O)C2(CCCC#Cc3ccc(Cl)cc3)SC(=O)NC2=O)cc1 (centres unmarked) [Example 103, 5-[5-(4-Chlorophenyl)pent-4-ynyl]-5-(p-tolylsulfonyl)-thiazolidine-2,4-dione]
0.23 to 1	0.03 to 0.05	COc1ccc(S(=O)(=O)C2(CCCC#Cc3cc([N+](=O)[O-])ccc3C)SC(=O)NC2=O)cc1 (centres unmarked) [Example 122, 5-(4-Methoxybenzenesulfonyl)-5-[5-(2-methyl-5-nitrophenyl)pent-4-ynyl]-thiazolidine-2,4-dione]
0.43 to 0.68	0.014 to 0.85	Cc1ccc(C)c(C#CCCCC2(S(=O)(=O)c3ccc(I)cc3)SC(=O)NC2=O)c1 (centres unmarked) [Example 134, 5-[5-(2,5-Dimethylphenyl)pent-4-ynyl]-5-(4-iodobenzenesulfonyl)-thiazolidine-2,4-dione]
0.054 to 1	0.04 to 0.2	COc1ccc(S(=O)(=O)C2(CCCC#Cc3cc(F)cc([N+](=O)[O-])c3)SC(=O)NC2=O)cc1 (centres unmarked) [Example 133, 5-[5-(3-Fluoro-5-nitrophenyl)pent-4-ynyl]-5-(4-methoxybenzene-sulfonyl)-thiazolidine-2,4-dione]
0.6 to 0.79	0.1	Cc1cc([N+](=O)[O-])ccc1C#CCCCC1(S(=O)(=O)c2ccc(Oc3ccccc3)cc2)SC(=O)NC1=O (centres unmarked) [Example 129, 5-[5-(2-Methyl-4-nitrophenyl)pent-4-ynyl]-5-(4-phenoxybenzenesulfonyl)-thiazolidine-2,4-dione]
1.9 to 2.1	0.02 to 0.032	COc1ccc(S(=O)(=O)C2(CCCC#Cc3cc(C)ccc3C)SC(=O)NC2=O)cc1 (centres unmarked) [Example 135, 5-[5-(2,5-Dimethylphenyl)pent-4-ynyl]-5-(4-methoxybenzenesulfonyl)-thiazolidine-2,4-dione]
	0.7	O=C1NC(=O)C(CCCC#Cc2ccc(Cl)cc2)(Sc2ccc(F)cc2)S1 (centres unmarked) [Example 96, 5-[5-(4-Chlorophenyl)pent-4-ynyl]-5-(4-fluorophenylsulfanyl)-thiazolidine-2,4-dione]
	0.28	Cc1ccc(S(=O)(=O)C2(CC#Cc3cccs3)SC(=O)NC2=O)cc1 (centres unmarked) [Example 168, 5-(3-Thiophen-2-yl-prop-2-ynyl)-5-(toluene-4-sulfonyl)-thiazolidine-2,4-dione]
	0.9	COc1ccc(S(=O)(=O)C2(CCCC#Cc3ccc(-n4cccc4)cc3)SC(=O)NC2=O)cc1 (centres unmarked) [Example 161, 5-(4-Methoxybenzenesulfonyl)-5-[5-(4-pyrrol-1-yl-phenyl)pent-4-ynyl]-thiazolidine-2,4-dione]
	1.3	O=C1NC(=O)C(CCCC#Cc2ccc(-n3cccc3)cc2)(S(=O)(=O)c2ccc(OC(F)(F)F)cc2)S1 (centres unmarked) [Example 163, 5-[5-(4-Pyrrol-1-ylphenyl)pent-4-ynyl]-5-(4-trifluoromethoxybenzenesulfonyl)-thiazolidine-2,4-dione]
	1.5	COc1ccc(S(=O)(=O)C2(CC#Cc3cccnc3)SC(=O)NC2=O)cc1 (centres unmarked) [Example 167, 5-(4-Methoxybenzenesulfonyl)-5-(3-pyridin-3-ylprop-2-ynyl)-thiazolidine-2,4-dione]
	2.9	COc1ccc(S(=O)(=O)C2(CCCC#Cc3ccc(Cl)cc3)SC(=O)N(CCCn3ccnc3)C2=O)cc1 (centres unmarked) [Example 233, 5-[5-(4-Chlorophenyl)pent-4-ynyl]-3-(3-imidazol-1-yl-propyl)-5-(4-methoxybenzenesulfonyl)-thiazolidine-2,4-dione]
